Measurements: patent publication US7232912B2, “Indazole compounds, pharmaceutical compositions, and methods for mediating or inhibiting cell proliferation” (Agouron Pharmaceuticals, Inc., priority 2000, dated 2007)

Assays:
human CHK1 = biological target: T1, human CHK1 (Homo sapiens, UniProt O14757); assay: CHK1 Assay (coupled spectrophotometric); format: biochemical
T1 construct: C-terminally His-tagged full-length human CHK1 (FL-CHK1) was expressed using the baculovirus/insect cell system; made in house; host or cells: baculovirus/insect cells
T1 sequence (O14757 1-476): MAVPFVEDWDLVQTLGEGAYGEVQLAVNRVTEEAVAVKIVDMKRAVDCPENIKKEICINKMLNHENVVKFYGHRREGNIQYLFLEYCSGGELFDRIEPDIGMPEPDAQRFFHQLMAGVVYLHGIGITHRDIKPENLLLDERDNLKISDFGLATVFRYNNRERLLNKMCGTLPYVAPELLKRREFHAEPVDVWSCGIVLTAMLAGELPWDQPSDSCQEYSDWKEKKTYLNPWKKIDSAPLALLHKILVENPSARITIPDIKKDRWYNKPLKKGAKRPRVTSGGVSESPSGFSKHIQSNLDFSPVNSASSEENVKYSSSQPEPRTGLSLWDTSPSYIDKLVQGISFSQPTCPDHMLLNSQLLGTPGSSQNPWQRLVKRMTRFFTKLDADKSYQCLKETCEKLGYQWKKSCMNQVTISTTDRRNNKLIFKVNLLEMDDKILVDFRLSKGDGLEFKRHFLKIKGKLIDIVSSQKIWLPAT
From the text: C-terminally His-tagged full-length human CHK1 (FL-CHK1) was expressed using the baculovirus/insect cell system. It contains 6 histidine residues (6×His-tag) at the C-terminus of the 476 amino acid human CHK1. The protein was purified by conventional chromatographic techniques.
The production of ADP from ATP that accompanies phosphoryl transfer to the synthetic substrate peptide Syntide-2 ([…]) was coupled to oxidation of NADH using phosphoenolpyruvate (PEP) through the actions of pyruvate kinase (PK) and lactic dehydrogenase (LDH). The oxidation of NADH was monitored by following the decrease of absorbance at 340 nm (ε340=6.22 cm^−1 mM^−1) using a HP8452 spectrophotometer. Typical reaction solutions contained: […]; 0.15 mM NADH; 28 units of LDH/ml; 16 units of PK/ml; 3 mM DTT; 0.125 mM Syntide-2; 0.15 mM ATP; 25 mM MgCl2 in 50 mM TRIS, pH 7.5; and 400 mM NaCl. Assays were initiated with 10 nM of FL-CHK1. Ki values were determined by measuring initial enzyme activity in the presence of varying concentrations of test compounds. The data were analyzed using Enzyme Kinetic and Kaleidagraph software.

FAK = assay: Coupled Spectrophotometric (FAK) Assay; format: biochemical
Experimental: Coupled Spectrophotometric (FAK) Assay
Tyrosine kinase assays were monitored using a Beckman DU 650 Spectrophotometer. Production of ADP was coupled to oxidation of NADH using phosphoenolpyruvate (PEP) through the actions of pyruvate kinase (PK) and lactic dehydrogenase (LDH). The oxidation of NADH was monitored by following the decrease in absorbance at 340 nm (ε340=6.22 cm^−1 mM^−1). Typical reaction solutions contained: 1 mM PEP, 250 μM NADH, 50 units of LDH/mL, 20 units of PK/mL, 5 mM DTT, in 200 mM Hepes, pH 7.5 and varying concentrations of poly(E4Y1), ATP and MgCl2. Assays were initiated with 40 nM of […].

`Cc1c(O)cccc1-c1ccc2[nH]nc(-c3nc4ccccc4[nH]3)c2c1` [10′, 3-[3-(1H-Benzoimidazol-2-yl)-1H-indazol-5-yl]-2-methyl-phenol] gave an inhibition at 10 µM (human CHK1; read-out: CHK1 % inhibition @ 10 μM, at 10 μM) of 5%.
`Cc1c(O)cccc1-c1ccc2[nH]nc(/C=C/c3ccccc3)c2c1` [15′, 2-Methyl-3-[3-((E)-styryl)-1H-indazol-5-yl]-phenol] was tested, and the inhibition at 1 µM (human CHK1; read-out: CHK1 % inhibition at 1 μM) was 16%.
`Fc1ccccc1-c1ccc2[nH]nc(-c3nc4ccccc4[nH]3)c2c1` [Example 6, 3-(1H-Benzoimidazol-2-yl)-5-(2-fluorophenyl)-1H-Indazole] showed an inhibition at 20 µM (human CHK1) of 80%.
With `C(=C\c1n[nH]c2ccc(-c3cncc4ccccc34)cc12)/c1ccccc1` [Example 16] the “FAK % Inhibition at 1 μM” value (FAK) was 47% and the Ki (human CHK1) was 81 µM.
`c1ccc2[nH]c(-c3n[nH]c4ccc(-c5cccc6[nH]ccc56)cc34)nc2c1` [Example 48, 3-(1H-Benzoimidazol-2-yl)-5-(1H-indol-4-yl)-1H-indazole] gave a Ki (human CHK1) of 7.82 µM.
